Measured values reported in patent publication US4657897A, “N^6 -substituted adenosines for treating pain” (Warner-Lambert Company, priority 1985, dated 1987).

Key:
[1] = Mouse Activity and Screen Test (MAST), inhibition of locomotion (LI); type: in vivo, mouse (Swiss-Webster, male); conditions: one hour data
Method: (§1) Treatments are administered intraperitoneally one hour prior to testing. […] Compounds are dissolved or suspended in 0.2% Methocel. Control animals are injected with Methocel.
Immediately following the screen test, the final phase of testing is initiated by placing each group of three mice in one actophotometer (Life Sciences, 22, 1067-1076, 1978). The actophotometer consists of a cylindrical chamber whose center is occupied by another cylinder which contains the illumination for six photocells located on the perimeter of the chamber. Six light-beam interruptions equal one count. Locomotor activity is recorded by computer at ten minute intervals for 60 minutes.
(§2) The compounds are identified in the Examples.

[2] = Mouse Activity and Screen Test (MAST), screen test failure (ST); type: in vivo, mouse (Swiss-Webster, male); conditions: Mus musculus, ip, 1 h, read-out: MAST ST LAD
Method: as §1, §2

[3] = Antihypertensive evaluation (AHP3), aortic blood pressure and heart rate in conscious rats; type: in vivo, rat
Method: This test procedure is described in the following paragraphs.
The continuous monitoring of pulsatile blood pressure (BP) from unrestrained conscious rats surgically equipped witth polyethylene cannulas was accomplished by means of a computer assisted data capture scheme (CADCS). The basic elements of the methodology are the cannulation procedure and the CADCS.
Rats were anesthetized with Telazol (1:1 tiletamine HCl and zolazepam HCl); 20-40 mg/kg IM and the descending aorta exposed via a midline incision. Cannulas fabricated from polyethylene tubing were inserted into the aorta via an undersized puncture hole below the renal arteries. The puncture hole was made by a 23 G disposable needle with a section of the aorta clamped off above and below the puncture site. The cannulas, consisting of a PE100 (0.86 mm ID) body and a PE50 (0.58 mm ID) tip, were attached to a trocar, inserted through the psoas muscle, and passed subcutaneously along the midline of the back and externalized between the ears. The cannulas were anchored to the psoas muscle and between the scalulae (3-0 green braided suture). The midline incision was closed in two steps (muscle first, skin second) using continuous over-and over sutures (4-0 chronic). Each rat was then given penicillin 30,000 units subcutaneously (Penicillin G Procaine Sterile Suspension).
The rats were fitted with a harness-spring-swivel assembly designed to protect the cannula and to provide the rat relative freedom of movement. The harnesses were fabricated from nylon hook and loop tape cemented to a metal plate to which spring wires (18-8 stainless steel), were attached to brass swivels. Each polyethylene cannula was channeled through a spring and connected through a swivel to a pressure transducer (Model P23Gb; Statham Instruments; Hato Rey, Puerto Rico) and an infusion pump (Sage model 234-7; Orion Research, Cambridge, MA) by means of PE100 tubing. While on test, each rat received a continuous slow infusion of heparinized saline solution (approximately […] or 40 units of heparin per 24 hour period) to prevent clot formation. Additional "flushes" of the cannula with heparinized saline were carried out when the aortic pulse pressure (systolic minus diastolic) was less than 25 mm Hg.
The pulsatile blood pressure and heart rate of each of 32 rats was monitored every minute by means of two in-laboratory microcomputers communicating directly with a data concentrator computer. The data were first stored on the data concentrator disk and then transferred to a magnetic tape for analysis and report generation by the main research computer. The overall scheme involved modulating the primary signal from the pressure transducer, generating the primary data set of the one-minute values for systolic, diastolic, and mean blood pressures and heart rate by the in-lab microcomputer and the storage, analysis, and report generation by the main reserach computer.
The transducers were connected to analog signal conditioning modules. The modules provided a regulated excitation voltage for the transducers, amplification as required to interface the microprocessors and an active low pass filter to compensate for the pressure wave form distortion produced by the flexible, fluid filled, narrow cannula. The distortion was 22-26 Hz and this provided a reliable estimate of both systolic and diastolic blood pressure.
The microcomputers (one for each of two groups of 16 rats) were connected to the input components through the module interface units, an analog-to-digital converter for the pressure wave form signal and the digital inputs for the dose and event marker switches. The microcomputer controlled the sequential acquisition of data from the modular interface units through an internal synchronous time-of-day clock/time base generator. Utilizing the time base generator as a reference, the blood pressure values and the marker switch status for each of the 32 stations were sampled every ten msec. […]

rat heart = assay: Coronary blood flow (PCS2A), isolated perfused rat heart; design: species or system rat (male); conditions: read-out: effect on heart rate (HR)
Method: Male rats (400-600 gms) are pretreated with Na heparin 2000 units and anesthetized with Na pentobarbital (50 mg/kg) administered intraperitoneally. Once anesthetized, the rat heart is rapidly excised, the ascending aorta fitted to the aortic perfusion cannula, and secured with a ligature. The coronary arteries are perfused initially at a rate of about 15 ml/min for two to three minutes, afterwhich they are perfused at constant pressure of 70 mm Hg and temperature of 37° C. The electrocardiogram (ECG) is recorded using two platinum electrodes positioned at the base and apex of the left ventricle. A second heart is excised, cannulated, and perfused by the same method outlined above. Both hearts are tested in parallel. The standard physiological salt solution (PSS) is a modified Krebs-Hanseleit bicarbonate buffer of the following composition in mM concentration: NaCl, 127; NaHCO3, 25; dextrose, 5.5; Na Pyruvate, 2.0; KCl, 4.7; MgSO4, 1.1; KH 2PO4, 1.2; CaCl2.2H2 O, 2.5; CaNa2 EDTA, 0.05.
A 30-minute stabilization period is observed before starting the test protocol.
The microprocessor control system is a servo mechanism which permits coronary perfusion pressure (CPP) and drug concentration to be maintained constant independent of changes in coronary flow. The level at which CPP and drug concentration are maintained can be changed by commands communicated through the microprocessor keyboard. Dose-response curves are carried out by perfusing concentrated drug solution (DC) at rates proportional to total coronary flow (CFT). Drug concentrations are increased by proportionate increases in the rate of DC infusion over CFT via the microprocessor keyboard. The proportional flow rates for DC:CFT is about 0.0002:1 at the low end and 0.02:1 at the high end of the dose-response curve. Dose-response curves encompassing at least two log doses are carried out by preparing two DCs with a concentration difference of 1:100. Following the first dose range of two log doses, the DC are switched, proportional pumping rate adjusted, and the dose-responsecurve continued for another two log doses. The standard dose-response curve is carried out in one-half log dose increments starting at a subthreshold dose and ending at a dose which produces near maximal response in activity. Standard reference compounds are tested over the range of 10^-9 to 10^-6 M.
Measurements are for heart rate (HR) and coronary flow (CF). Units are: HR, beats/minute (bpm) and CF, milliliters/minute (ml/min). HR is calculated from the ECG strip chart recording and CF is calculated by recording analog outputs from pumps 1 and 2. Outputs from pump #1=CFT and the output from pump #2=CF for heart B (CFB). CF for heart A (CFA) is calculated (CFT -CFB =CFA).

OC[C@H]1O[C@@H](n2cnc3c(NCC(c4ccccc4)c4ccccc4)ncnc32)[C@H](O)[C@@H]1O [Example 1, N^6-(2,2-Diphenylethyl)adenosine]
Inhibition of mouse locomotor activity ([1]; 10 mg/kg intraperitoneal): 92% | Inhibition of mouse locomotor activity ([1]; 30 mg/kg intraperitoneal): 93% | Inhibition of mouse locomotor activity ([1]; 100 mg/kg intraperitoneal): 94% | minimal effective dose [2]: > 100 mg/kg | change in MAP (decrease) ([3]; 1 mg/kg): 16% | change in heart rate (HR increase) ([3]; 1 mg/kg): < 20% | change in MAP (decrease) ([3]; 3 mg/kg): 20% | change in heart rate (HR increase) ([3]; 3 mg/kg): < 20% | change in MAP (decrease) ([3]; 10 mg/kg): 20% | change in heart rate (HR increase) ([3]; 10 mg/kg): < 20% | change in MAP (decrease) ([3]; 30 mg/kg): 35% | change in heart rate (HR increase) ([3]; 30 mg/kg): < 20% | activation at 0.001 µM (rat heart): 1% | activation at 0.003 µM (rat heart): 3% | activation at 0.01 µM (rat heart): -1% | activation at 0.1 µM (rat heart): -13% | activation at 1 µM (rat heart): -47%
